Results published in the kinase profiling compilation of Christmann-Franck et al. (2016).

What was measured:
Assay in all cases: KINOMEscan competition binding
Conditions in all cases: compound 10.0 µM
[1] = molecular target: PLK4 (human) (UniProt O00444)
[2] = molecular target: RIPK4 (human) (UniProt P57078)
[3] = molecular target: CSNK1A1L (human) (UniProt Q8N752)
[4] = molecular target: MAP3K7 (human) (UniProt O43318)
[5] = molecular target: TYK2 JH1 catalytic (human) (UniProt P29597)
[6] = molecular target: KDR (human) (UniProt P35968)
[7] = molecular target: STK17A (human) (UniProt Q9UEE5)
[8] = molecular target: AURKA (human) (UniProt O14965)
[9] = molecular target: FGFR3 (human) (UniProt P22607)
[10] = molecular target: RPS6KA1 KD2 (human) (UniProt Q15418)
[11] = molecular target: JAK3 JH1 catalytic (human) (UniProt P52333)
Sequence of JAK3 JH1 catalytic (human) (P52333 whole entry, looked up): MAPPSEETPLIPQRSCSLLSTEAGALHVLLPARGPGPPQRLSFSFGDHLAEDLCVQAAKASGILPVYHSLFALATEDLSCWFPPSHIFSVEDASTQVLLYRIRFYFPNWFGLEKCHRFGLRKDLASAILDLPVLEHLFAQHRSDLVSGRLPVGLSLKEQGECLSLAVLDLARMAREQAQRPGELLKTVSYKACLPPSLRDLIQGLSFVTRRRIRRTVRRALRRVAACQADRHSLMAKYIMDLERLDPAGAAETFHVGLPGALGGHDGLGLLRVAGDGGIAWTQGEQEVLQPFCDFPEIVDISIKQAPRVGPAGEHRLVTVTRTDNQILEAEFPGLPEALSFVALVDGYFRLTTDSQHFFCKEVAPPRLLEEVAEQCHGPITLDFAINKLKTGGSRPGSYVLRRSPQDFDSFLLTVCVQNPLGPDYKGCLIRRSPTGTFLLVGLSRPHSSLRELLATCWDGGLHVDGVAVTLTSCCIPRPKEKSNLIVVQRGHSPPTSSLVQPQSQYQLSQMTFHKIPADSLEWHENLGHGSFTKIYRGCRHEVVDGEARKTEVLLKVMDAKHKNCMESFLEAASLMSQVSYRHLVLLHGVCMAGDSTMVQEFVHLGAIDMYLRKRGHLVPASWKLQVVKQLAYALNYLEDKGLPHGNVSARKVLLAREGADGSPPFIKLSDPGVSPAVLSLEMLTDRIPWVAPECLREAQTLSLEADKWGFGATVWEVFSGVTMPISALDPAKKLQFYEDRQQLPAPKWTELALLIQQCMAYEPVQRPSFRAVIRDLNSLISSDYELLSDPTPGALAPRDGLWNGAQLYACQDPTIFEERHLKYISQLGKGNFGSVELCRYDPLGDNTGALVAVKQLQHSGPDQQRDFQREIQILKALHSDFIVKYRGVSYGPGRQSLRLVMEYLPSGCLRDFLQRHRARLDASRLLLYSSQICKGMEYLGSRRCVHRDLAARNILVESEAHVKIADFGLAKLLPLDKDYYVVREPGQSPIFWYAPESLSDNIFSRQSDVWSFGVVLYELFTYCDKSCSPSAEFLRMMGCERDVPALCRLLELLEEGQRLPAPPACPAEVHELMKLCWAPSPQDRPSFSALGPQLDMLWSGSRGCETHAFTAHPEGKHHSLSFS

[12] = molecular target: FLT3 (human) (UniProt P36888)
[13] = molecular target: EPHA1 (human) (UniProt P21709)
[14] = molecular target: PIK3CD (human) (UniProt O00329)
[15] = molecular target: TYK2 JH2 pseudokinase (human) (UniProt P29597)
[16] = molecular target: BRSK1 (human) (UniProt Q8TDC3)
Sequence of BRSK1 (human) (Q8TDC3 whole entry, looked up): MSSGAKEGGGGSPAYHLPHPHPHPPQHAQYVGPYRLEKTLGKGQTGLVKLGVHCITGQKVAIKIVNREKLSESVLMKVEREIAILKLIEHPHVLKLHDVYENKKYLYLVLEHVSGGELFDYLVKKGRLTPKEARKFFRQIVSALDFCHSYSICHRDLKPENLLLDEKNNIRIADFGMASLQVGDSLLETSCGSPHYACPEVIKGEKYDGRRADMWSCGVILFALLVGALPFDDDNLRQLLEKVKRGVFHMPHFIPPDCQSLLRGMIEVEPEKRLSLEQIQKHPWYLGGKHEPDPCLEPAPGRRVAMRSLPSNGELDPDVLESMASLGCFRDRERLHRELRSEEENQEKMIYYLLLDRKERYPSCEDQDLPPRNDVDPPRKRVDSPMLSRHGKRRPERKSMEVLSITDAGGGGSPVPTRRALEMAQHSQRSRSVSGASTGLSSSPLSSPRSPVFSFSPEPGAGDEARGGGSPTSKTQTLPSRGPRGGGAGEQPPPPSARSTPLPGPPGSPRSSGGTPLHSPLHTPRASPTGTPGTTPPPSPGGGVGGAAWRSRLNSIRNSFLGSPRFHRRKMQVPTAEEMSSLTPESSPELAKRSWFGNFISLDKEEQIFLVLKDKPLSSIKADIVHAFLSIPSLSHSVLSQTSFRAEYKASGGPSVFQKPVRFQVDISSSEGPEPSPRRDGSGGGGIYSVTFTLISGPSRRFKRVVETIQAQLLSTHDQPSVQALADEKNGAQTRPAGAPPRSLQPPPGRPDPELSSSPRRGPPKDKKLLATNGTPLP

[17] = molecular target: CAMK2B (human) (UniProt Q13554)
Sequence of CAMK2B (human) (Q13554 whole entry, looked up): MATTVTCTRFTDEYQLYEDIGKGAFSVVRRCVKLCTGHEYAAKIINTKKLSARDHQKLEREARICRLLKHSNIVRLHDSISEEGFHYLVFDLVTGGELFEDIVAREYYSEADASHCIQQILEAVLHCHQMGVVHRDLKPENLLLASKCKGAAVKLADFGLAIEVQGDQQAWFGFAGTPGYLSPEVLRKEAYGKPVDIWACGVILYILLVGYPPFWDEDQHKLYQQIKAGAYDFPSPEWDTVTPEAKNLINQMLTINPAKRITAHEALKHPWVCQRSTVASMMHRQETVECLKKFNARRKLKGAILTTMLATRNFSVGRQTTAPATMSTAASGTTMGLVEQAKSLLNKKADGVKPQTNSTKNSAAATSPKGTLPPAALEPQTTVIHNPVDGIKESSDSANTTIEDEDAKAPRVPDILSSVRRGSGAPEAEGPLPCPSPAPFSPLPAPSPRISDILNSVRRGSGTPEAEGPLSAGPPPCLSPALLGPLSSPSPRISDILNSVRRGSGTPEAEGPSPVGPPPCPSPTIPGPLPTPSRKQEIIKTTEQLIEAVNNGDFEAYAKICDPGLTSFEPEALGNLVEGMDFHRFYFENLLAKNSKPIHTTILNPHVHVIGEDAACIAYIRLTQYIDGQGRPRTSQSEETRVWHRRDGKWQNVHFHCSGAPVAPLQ

[18] = molecular target: MAP4K2 (human) (UniProt Q12851)
Sequence of MAP4K2 (human) (Q12851 whole entry, looked up): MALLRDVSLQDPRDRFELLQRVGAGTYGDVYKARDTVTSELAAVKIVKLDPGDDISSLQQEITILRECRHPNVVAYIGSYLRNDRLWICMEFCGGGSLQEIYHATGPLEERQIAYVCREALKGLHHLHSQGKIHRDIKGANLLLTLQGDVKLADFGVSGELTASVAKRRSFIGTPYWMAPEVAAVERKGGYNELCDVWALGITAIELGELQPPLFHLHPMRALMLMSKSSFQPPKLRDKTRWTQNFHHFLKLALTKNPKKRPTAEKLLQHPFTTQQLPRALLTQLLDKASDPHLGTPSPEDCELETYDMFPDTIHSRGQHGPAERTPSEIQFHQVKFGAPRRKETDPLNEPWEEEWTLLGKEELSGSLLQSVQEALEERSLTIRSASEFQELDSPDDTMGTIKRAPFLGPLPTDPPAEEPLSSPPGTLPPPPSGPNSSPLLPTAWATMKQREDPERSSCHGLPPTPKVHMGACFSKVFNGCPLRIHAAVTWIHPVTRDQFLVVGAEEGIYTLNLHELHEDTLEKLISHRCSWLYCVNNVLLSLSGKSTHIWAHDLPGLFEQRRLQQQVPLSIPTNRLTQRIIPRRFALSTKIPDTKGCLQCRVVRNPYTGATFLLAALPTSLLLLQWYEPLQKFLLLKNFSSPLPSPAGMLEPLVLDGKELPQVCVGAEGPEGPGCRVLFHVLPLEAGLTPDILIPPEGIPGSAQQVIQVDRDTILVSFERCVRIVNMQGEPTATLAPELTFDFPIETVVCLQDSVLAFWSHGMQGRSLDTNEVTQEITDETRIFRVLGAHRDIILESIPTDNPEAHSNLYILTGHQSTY

[19] = molecular target: MAP3K12 (human) (UniProt Q12852)
[20] = molecular target: ACVR1B (human) (UniProt P36896)
Sequence of ACVR1B (human) (P36896 whole entry, looked up): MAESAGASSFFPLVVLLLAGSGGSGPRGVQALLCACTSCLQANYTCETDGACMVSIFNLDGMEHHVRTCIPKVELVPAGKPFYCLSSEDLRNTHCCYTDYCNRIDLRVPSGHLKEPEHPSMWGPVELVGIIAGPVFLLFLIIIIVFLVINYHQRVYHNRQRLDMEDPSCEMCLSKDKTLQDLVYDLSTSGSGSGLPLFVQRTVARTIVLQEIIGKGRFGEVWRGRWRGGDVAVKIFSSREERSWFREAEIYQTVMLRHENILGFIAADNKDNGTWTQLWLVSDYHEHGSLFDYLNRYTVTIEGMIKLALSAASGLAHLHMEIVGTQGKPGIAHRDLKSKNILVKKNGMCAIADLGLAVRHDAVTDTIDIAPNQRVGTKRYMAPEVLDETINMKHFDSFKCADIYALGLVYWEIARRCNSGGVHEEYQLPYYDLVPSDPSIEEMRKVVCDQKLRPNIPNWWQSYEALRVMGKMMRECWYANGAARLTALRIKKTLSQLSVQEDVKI

[21] = molecular target: ALK (human) (UniProt Q9UM73)
[22] = molecular target: CDC42BPG (human) (UniProt Q6DT37)
[23] = molecular target: CSF1R (human) (UniProt P07333)
[24] = molecular target: CAMK2G (human) (UniProt Q13555)
Sequence of CAMK2G (human) (Q13555 whole entry, looked up): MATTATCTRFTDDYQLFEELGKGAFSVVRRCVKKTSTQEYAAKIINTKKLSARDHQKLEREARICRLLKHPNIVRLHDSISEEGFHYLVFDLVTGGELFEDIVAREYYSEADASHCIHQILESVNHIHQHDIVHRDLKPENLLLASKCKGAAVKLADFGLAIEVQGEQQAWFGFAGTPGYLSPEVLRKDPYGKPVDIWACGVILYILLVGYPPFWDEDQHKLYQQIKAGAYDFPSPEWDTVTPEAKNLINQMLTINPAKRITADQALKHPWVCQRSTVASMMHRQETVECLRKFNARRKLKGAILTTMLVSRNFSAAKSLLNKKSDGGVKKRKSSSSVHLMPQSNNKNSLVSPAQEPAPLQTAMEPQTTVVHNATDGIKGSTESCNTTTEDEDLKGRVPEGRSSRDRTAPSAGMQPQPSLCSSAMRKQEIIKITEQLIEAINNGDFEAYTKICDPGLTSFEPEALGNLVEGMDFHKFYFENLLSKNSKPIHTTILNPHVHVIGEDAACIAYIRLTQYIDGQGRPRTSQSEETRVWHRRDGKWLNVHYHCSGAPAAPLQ

[25] = molecular target: EIF2AK2 (human) (UniProt P19525)
[26] = molecular target: SIK2 (human) (UniProt Q9H0K1)
[27] = molecular target: LCK (human) (UniProt P06239)
[28] = molecular target: CDK5 (human) (UniProt Q00535)
[29] = molecular target: EPHB4 (human) (UniProt P54760)
[30] = molecular target: ULK2 (human) (UniProt Q8IYT8)
[31] = molecular target: EPHA4 (human) (UniProt P54764)
[32] = molecular target: CAMKK1 (human) (UniProt Q8N5S9)
[33] = molecular target: RIPK2 (human) (UniProt O43353)
[34] = molecular target: CDK15 (human) (UniProt Q96Q40)
[35] = molecular target: CDC42BPB (human) (UniProt Q9Y5S2)
[36] = molecular target: PAK6 (human) (UniProt Q9NQU5)
[37] = molecular target: PRKAA2 (human) (UniProt P54646)
[38] = molecular target: PRKACB (human) (UniProt P22694)
[39] = molecular target: CLK4 (human) (UniProt Q9HAZ1)
[40] = molecular target: SRPK1 (human) (UniProt Q96SB4)

Sequence of MAP3K7 (human) (O43318 whole entry, looked up): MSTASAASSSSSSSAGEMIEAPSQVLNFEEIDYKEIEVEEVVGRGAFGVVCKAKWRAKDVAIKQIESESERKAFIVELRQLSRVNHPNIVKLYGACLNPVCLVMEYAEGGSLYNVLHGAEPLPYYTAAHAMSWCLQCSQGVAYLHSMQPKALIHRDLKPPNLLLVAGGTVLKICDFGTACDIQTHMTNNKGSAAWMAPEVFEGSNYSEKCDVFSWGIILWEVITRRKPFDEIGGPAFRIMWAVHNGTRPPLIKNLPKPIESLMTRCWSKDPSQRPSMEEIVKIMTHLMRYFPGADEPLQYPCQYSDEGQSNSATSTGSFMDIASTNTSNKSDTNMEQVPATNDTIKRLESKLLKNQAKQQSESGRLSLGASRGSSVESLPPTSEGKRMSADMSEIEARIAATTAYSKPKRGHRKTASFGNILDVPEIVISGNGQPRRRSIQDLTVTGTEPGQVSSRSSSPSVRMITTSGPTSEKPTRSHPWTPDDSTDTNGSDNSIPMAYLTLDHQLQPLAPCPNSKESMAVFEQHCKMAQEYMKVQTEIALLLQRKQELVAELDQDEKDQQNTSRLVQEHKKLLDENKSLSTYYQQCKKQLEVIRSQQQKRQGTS

`CCCS(=O)(=O)Nc1ccc(F)c(C(=O)c2c[nH]c3ncc(-c4ccc(Cl)cc4)cc23)c1F` was tested, and the kinase still bound, per cent of control [1] was 48%, the kinase still bound, per cent of control [2] was 91% and the kinase still bound, per cent of control [3] was 100%. The kinase still bound, per cent of control [4] was 69%, the kinase still bound, per cent of control [5] was 47% and the kinase still bound, per cent of control [6] was 31%. For the same compound, the kinase still bound, per cent of control [7] was 62%, the kinase still bound, per cent of control [8] was 81% and the kinase still bound, per cent of control [9] was 93%. The kinase still bound, per cent of control [10] was 59%, the kinase still bound, per cent of control [11] was 83% and the kinase still bound, per cent of control [12] was 2.4%. For the same compound, the kinase still bound, per cent of control [13] was 82%, the kinase still bound, per cent of control [14] was 89% and the kinase still bound, per cent of control [15] was 100%. The kinase still bound, per cent of control [16] was 100%, the kinase still bound, per cent of control [17] was 98% and the kinase still bound, per cent of control [18] was 59%. For the same compound, the kinase still bound, per cent of control [19] was 62%, the kinase still bound, per cent of control [20] was 78% and the kinase still bound, per cent of control [21] was 62%. The kinase still bound, per cent of control [22] was 34%, the kinase still bound, per cent of control [23] was 8% and the kinase still bound, per cent of control [24] was 95%. The kinase still bound, per cent of control [25] was 81%, the kinase still bound, per cent of control [26] was 61% and the kinase still bound, per cent of control [27] was 1.6%. The kinase still bound, per cent of control [28] was 96%, the kinase still bound, per cent of control [29] was 100% and the kinase still bound, per cent of control [30] was 100%. The kinase still bound, per cent of control [31] was 100%, the kinase still bound, per cent of control [32] was 86% and the kinase still bound, per cent of control [33] was 4.3%. The kinase still bound, per cent of control [34] was 96%, the kinase still bound, per cent of control [35] was 79% and the kinase still bound, per cent of control [36] was 74%. It also gave a kinase still bound, per cent of control [37] of 63%, a kinase still bound, per cent of control [38] of 100% and a kinase still bound, per cent of control [39] of 100%. For the same compound, the kinase still bound, per cent of control [40] was 92%.
`OCCCNc1cc(-c2ccnc(Nc3cccc(Cl)c3)n2)ccn1` gave a kinase still bound, per cent of control [1] of 100%, a kinase still bound, per cent of control [2] of 100% and a kinase still bound, per cent of control [3] of 100%. It also gave a kinase still bound, per cent of control [4] of 100%, a kinase still bound, per cent of control [5] of 100% and a kinase still bound, per cent of control [6] of 100%. The kinase still bound, per cent of control [7] was 100%, the kinase still bound, per cent of control [8] was 100% and the kinase still bound, per cent of control [9] was 100%. It also gave a kinase still bound, per cent of control [10] of 100%, a kinase still bound, per cent of control [11] of 100% and a kinase still bound, per cent of control [12] of 100%. It also gave a kinase still bound, per cent of control [13] of 100%, a kinase still bound, per cent of control [14] of 100% and a kinase still bound, per cent of control [15] of 100%. The kinase still bound, per cent of control [16] was 100%, the kinase still bound, per cent of control [17] was 100% and the kinase still bound, per cent of control [18] was 100%. The kinase still bound, per cent of control [19] was 100%, the kinase still bound, per cent of control [20] was 100% and the kinase still bound, per cent of control [21] was 100%. It also gave a kinase still bound, per cent of control [22] of 100%, a kinase still bound, per cent of control [23] of 100% and a kinase still bound, per cent of control [24] of 100%. For the same compound, the kinase still bound, per cent of control [25] was 100%, the kinase still bound, per cent of control [26] was 100% and the kinase still bound, per cent of control [27] was 100%. The kinase still bound, per cent of control [28] was 100%, the kinase still bound, per cent of control [29] was 100% and the kinase still bound, per cent of control [30] was 100%. It also gave a kinase still bound, per cent of control [31] of 100%, a kinase still bound, per cent of control [32] of 100% and a kinase still bound, per cent of control [33] of 100%. For the same compound, the kinase still bound, per cent of control [34] was 100%, the kinase still bound, per cent of control [35] was 100% and the kinase still bound, per cent of control [36] was 100%. For the same compound, the kinase still bound, per cent of control [37] was 100%, the kinase still bound, per cent of control [38] was 100% and the kinase still bound, per cent of control [39] was 14%. The kinase still bound, per cent of control [40] was 100%.
In the case of `Cc1ccc(C(=O)Nc2cccc(C(F)(F)F)c2)cc1Nc1cncc(C(N)=O)c1`, the kinase still bound, per cent of control [1] is reported as 100%, the kinase still bound, per cent of control [2] is reported as 100% and the kinase still bound, per cent of control [3] is reported as 100%. The kinase still bound, per cent of control [4] was 100%, the kinase still bound, per cent of control [5] was 100% and the kinase still bound, per cent of control [6] was 100%. It also gave a kinase still bound, per cent of control [7] of 100%, a kinase still bound, per cent of control [8] of 100% and a kinase still bound, per cent of control [9] of 100%. For the same compound, the kinase still bound, per cent of control [10] was 100%, the kinase still bound, per cent of control [11] was 100% and the kinase still bound, per cent of control [12] was 100%. It also gave a kinase still bound, per cent of control [13] of 100%, a kinase still bound, per cent of control [14] of 100% and a kinase still bound, per cent of control [15] of 100%. It also gave a kinase still bound, per cent of control [16] of 100%, a kinase still bound, per cent of control [17] of 100% and a kinase still bound, per cent of control [18] of 100%. The kinase still bound, per cent of control [19] was 100%, the kinase still bound, per cent of control [20] was 100% and the kinase still bound, per cent of control [21] was 100%. The kinase still bound, per cent of control [22] was 100%, the kinase still bound, per cent of control [23] was 1.4% and the kinase still bound, per cent of control [24] was 100%. The kinase still bound, per cent of control [25] was 100%, the kinase still bound, per cent of control [26] was 100% and the kinase still bound, per cent of control [27] was 1.9%. It also gave a kinase still bound, per cent of control [28] of 100%, a kinase still bound, per cent of control [29] of 6.9% and a kinase still bound, per cent of control [30] of 100%. It also gave a kinase still bound, per cent of control [31] of 6.8%, a kinase still bound, per cent of control [32] of 100% and a kinase still bound, per cent of control [33] of 100%. For the same compound, the kinase still bound, per cent of control [34] was 100%, the kinase still bound, per cent of control [35] was 100% and the kinase still bound, per cent of control [36] was 100%. The kinase still bound, per cent of control [37] was 100%, the kinase still bound, per cent of control [38] was 100% and the kinase still bound, per cent of control [39] was 100%. For the same compound, the kinase still bound, per cent of control [40] was 100%.
